The values that follow are results of earlier work, collected in patent US20110008801A1, “METHODS FOR MEASURING CELL-CELL OR CELL-MATRIX ADHESIVE FORCES AND COMPOUNDS FOR DISRUPTING ADHESIVE FORCES IN BIOLOGICAL SYSTEMS” (Worcester Polytechnic Institute, priority 2006, published 2011).

Molecules are shown by their SMILES.

For the series, the system named is UPEC, type 1 and P fimbriated E. coli.

On to `O=C(CO)[C@@H](O)[C@H](O)[C@H](O)CO` [fructose], for which the “adhesion of fimbriated E. coli” value was “inhibited the adhesion of bacteria with type 1 fimbriae only”.
